In US12115209B2, “ROMO1-derived antimicrobial peptides including lysine substitution and variants thereof” (KOREA UNIVERSITY RESEARCH AND BUSINESS FOUNDATION, priority 2019, dated 2024):
No end group written: not given here.

How the values were obtained:
Assay type in all cases: cell-based
CRPA = experiment: Minimum bactericidal concentration (MBC) assay; parameters: unit: µg/mL
[1] = test system: Pseudomonas aeruginosa (ATCC 27853); experiment: Minimum bactericidal concentration (MBC) assay; parameters: MBC Pseudomonas aeruginosa: unit: µg/mL
Procedure: (§1) First, each of Pseudomonas aeruginosa (ATCC 27853) and Staphylococcus aureus (ATCC 29213) was cultured in 3% (w/v) TSB (tryptic soy broth) liquid medium at 37° C. and 200 rpm for 4 hours, and then further cultured under the same conditions for 3 hours to a concentration of 5×10^6 CFU/ml. Strain solutions were prepared by diluting each of the further cultured strains with SP (sodium phosphate; 10 mM sodium phosphate, 1% TSB) buffer to a final concentration of 2×10^5 CFU/ml.
(§2) Then, each peptide at varying concentrations (0 μg/ml to 300 μg/ml) was dispensed into each well of a 96-well microplate, and 100 μl (1×10^5 CFU/ml) of each of the prepared strain solutions was added thereto, mixed therewith, and allowed to react with the peptide in an incubator at 37° C. for 1 hour.
(§3) In addition, 30 g/L of TS (tryptic soy) and 15 g/L of agar were dissolved in distilled water and sterilized, and then 25 ml of the solution was poured onto a 100 mm round plate and solidified at room temperature for one day or more, thereby preparing a TS agar plate. 10 μl of each reaction solution of the peptide and the strain was plated on the TS agar plate at a constant size, and incubated in an incubator at 37° C. for 18 hours, and then colony formation on the plate was checked. The minimum bactericidal concentration was defined as the minimum concentration of the peptide at which no colony was formed, and the experimental results are shown in Table 1 below.

[2] = test system: Pseudomonas aeruginosa, Staphylococcus aureus, CRPA, MRSA; experiment: Increase in antibacterial activity (MBC) compared with KU-5878
[3] = test system: Staphylococcus aureus (ATCC 29213); experiment: Minimum bactericidal concentration (MBC) assay; parameters: MBC Staphylococcus aureus: unit: µg/mL
Procedure: as §1, §2, §3

[4] = test system: Methicillin-resistant Staphylococcus aureus (MRSA, ATCC 33591); experiment: Minimum bactericidal concentration (MBC) assay; parameters: unit: µg/mL
Procedure: as §1, with “2×10^5 CFU/ml. […]” for “2×10^5 CFU/ml.”
as §3, with “checked.” for “checked. The minimum bactericidal concentration was defined as the minimum concentration of the peptide at which no colony was formed, and the experimental results are shown in Table 1 below.”
Specifically, each type of bacteria was cultured in 3% (w/v) TSB (tryptic soy broth) liquid medium at 37° C. and 200 rpm for 4 hours, and then further cultured under the same conditions for 3 hours to a concentration of 5×10^6 CFU/ml. Strain solutions were prepared by diluting each of the further cultured strains with SP buffer to a final concentration of 2×10^5 CFU/ml.
as §2, with “Then, the KU-5878” for “Then, each”
In addition, 10 μl of each reaction solution of the peptide and the strain was plated on the TS agar plate at a constant size, and incubated in an incubator at 37° C. for 18 hours, and then colony formation on the plate was checked.

[5] = mark = antibacterial activity increased compared with KU-5878

| Substance | MBC CRPA (CRPA; Tables 11-21, no unit printed) | MBC Pseudomonas aeruginosa ([1]; Tables 11-21, no unit printed) | Increase in activity [2, 5] | MBC Staphylococcus aureus ([3]; Tables 11-21, no unit printed) | MBC MRSA ([4]; Tables 11-21, no unit printed) | MBC CRPA (CRPA; CRPA) [mg/L] | MBC Pseudomonas aeruginosa ([1]; Pseudomonas aeruginosa) [mg/L] | Increase in activity ([2]; compared with KU-5878) | MBC Staphylococcus aureus ([3]; Staphylococcus aureus) [mg/L] | MBC MRSA ([4]; MRSA) [mg/L] |
| --- | --- | --- | --- | --- | --- | --- | --- | --- | --- | --- |
| -KMMKKGGKFGTF-AIGMGIR [Peptide K4-d58K-d71M] | 10 mg/L | 10 mg/L | ◯ | 8 mg/L | 10 mg/L | – | – | – | – | – |
| KKMMKKGGKFGTFM-IGMGIR [Peptide 5878-K4-d72A] | 4 mg/L | 2 mg/L | ◯ | 2 mg/L | 3 mg/L | – | – | – | – | – |
| KTMMQSGGTFGTFMAIGMGIRRRR [Peptide 5878-3R] | 8 mg/L | 8 mg/L | ◯ | 8 mg/L | 10 mg/L | – | – | – | – | – |
| KKMMKK-GKFGTF-AIG-GIR [d 64G 71M 75M] | 3 mg/L | 2 mg/L | ◯ | 3 mg/L | 3 mg/L | – | – | – | – | – |
| KTMMQSGGTFGTFMAIGM-IR [Peptide 5878-d76G] | 90 mg/L | 80 mg/L | 0 | 70 mg/L | 90 mg/L | – | – | – | – | – |
| KKMMKKGGKFG-FMAIGMGIR [Peptide 5878-K4-d69T] | 3 mg/L | 4 mg/L | ◯ | 2 mg/L | 2 mg/L | – | – | – | – | – |
| KKMMKKGGKFGTF-AIGMGIR [Peptide 5878-K4-d71M] | 6 mg/L | 2 mg/L | ◯ | 4 mg/L | 4 mg/L | – | – | – | – | – |
| KK-MKKGGKFGTF-AIG-GIR [d 60M 71M 75M] | 3 mg/L | 2 mg/L | ◯ | 2 mg/L | 2 mg/L | – | – | – | – | – |
| KTMMQSGG-FGTFMAIGMGIR [Peptide 5878-d66T] | 100 mg/L | 90 mg/L | 0 | 90 mg/L | 90 mg/L | – | – | – | – | – |
| KK-MKKGGKFGTF--IGMGIR [d 60M 71M 72A] | 8 mg/L | 8 mg/L | ◯ | 8 mg/L | 10 mg/L | – | – | – | – | – |
| KKMMKKGGKFGTF--IG-GIR [d 71M 72A 75M] | 2 mg/L | 2 mg/L | ◯ | 3 mg/L | 3 mg/L | – | – | – | – | – |
| KKIIKKGGKFGTFIAIGIGIR [Peptide K4-4MI] | 3 | 3 | ◯ | 2 | 3 | – | – | – | – | – |
| d 58K 64G 72A 75M (GKFGTFM) | – | – | – | – | – | 8 | 6 | ◯ | 6 | 8 |
| KKMM-KGGKF--FM-IG-GIR [d 62K 68G 69T 72A 75M] | 8 mg/L | 8 mg/L | ◯ | 8 mg/L | 10 mg/L | – | – | – | – | – |
| TKMMKKGGKFGTFMAIGMGIR [Peptide K4-K58T] | 3 | 3 | ◯ | 3 | 4 | – | – | – | – | – |
| KTMMQSGGTFGTFMAI-MGIR [Peptide 5878-d74G] | 30 mg/L | 20 mg/L | 0 | 25 mg/L | 25 mg/L | – | – | – | – | – |
| -KMMKK-GKFG-F--IGMGIR [d 58K 64G 69T 71M 72A] | 3 mg/L | 2 mg/L | ◯ | 2 mg/L | 3 mg/L | – | – | – | – | – |
| KKMMKKGGKFG-F-AIGMGIR [Peptide K4-d69T-d71M] | 12 mg/L | 10 mg/L | ◯ | 10 mg/L | 12 mg/L | – | – | – | – | – |
| d 60M 62K 71M 75M (KGGKFGTF) | – | – | – | – | – | 3 | 2 | ◯ | 2 | 3 |

| Substance | MBC CRPA (CRPA; Tables 11-21, no unit printed) | MBC Pseudomonas aeruginosa ([1]; Tables 11-21, no unit printed) | Increase in activity [2, 5] | MBC Staphylococcus aureus ([3]; Tables 11-21, no unit printed) | MBC MRSA ([4]; Tables 11-21, no unit printed) | MBC CRPA (CRPA; CRPA) [mg/L] | MBC Pseudomonas aeruginosa ([1]; Pseudomonas aeruginosa) [mg/L] | Increase in activity ([2]; compared with KU-5878) | MBC Staphylococcus aureus ([3]; Staphylococcus aureus) [mg/L] | MBC MRSA ([4]; MRSA) [mg/L] |
| --- | --- | --- | --- | --- | --- | --- | --- | --- | --- | --- |
| d 60M 71M 72A 75M (MKKGGKFGTF) | – | – | – | – | – | 2 | 2 | ◯ | 1 | 3 |
| KTAMQSGGTFGTFMAIGMGIR [KU-5878-M60A] | > 300 mg/L | > 300 mg/L | – | > 300 mg/L | > 300 mg/L | – | – | – | – | – |
| -KMMKKGGKFGTFMAIG-GIR [Peptide K4-d58K-d75M] | 160 mg/L | 150 mg/L | – | 150 mg/L | 180 mg/L | – | – | – | – | – |
| KKMMKKGGKFGTFMA-GMGIR [Peptide 5878-K4-d73I] | > 300 mg/L | 300 mg/L | – | 300 mg/L | > 300 mg/L | – | – | – | – | – |
| KTMMQSGGTFGTFMAIGMGIRQ [Peptide 5878-Q] | 180 mg/L | 150 mg/L | – | 180 mg/L | 180 mg/L | – | – | – | – | – |
| KTMMQ-GGTFGTFMAIGMGIR [Peptide 5878-d63S] | 200 mg/L | 200 mg/L | – | 200 mg/L | 200 mg/L | – | – | – | – | – |
| KKMMKKGGKFGTFM-IG-GIR [Peptide K4-d72A-d75M] | 200 mg/L | 200 mg/L | – | 200 mg/L | 200 mg/L | – | – | – | – | – |
| KSMMQSGGTFGTFMAIGMGIR [KU-5878-T59S] | > 300 mg/L | > 300 mg/L | – | > 300 mg/L | > 300 mg/L | – | – | – | – | – |
| KTMMQSGGTFGTFMAIGMGTR [KU-5878-I77T] | > 300 mg/L | > 300 mg/L | – | > 300 mg/L | > 300 mg/L | – | – | – | – | – |
| KAMMQSGGTFGTFMAIGMGIR [KU-5878-T59A] | 130 mg/L | 150 mg/L | – | 120 mg/L | 140 mg/L | – | – | – | – | – |
| KT-MQS-GTFGTFM-IG-GIR [5878-d60M, d64G, d72A, d75M] | 120 mg/L | 120 mg/L | – | 100 mg/L | 120 mg/L | – | – | – | – | – |
| KTMMQSGGTFGTFMAIGMGI [KU-5877] | > 300 mg/L | 300 mg/L | – | 300 mg/L | > 300 mg/L | – | – | – | – | – |
| KTMMQSGGKFGTFMAIGMGIR [KU-5878-T66K] | 70 mg/L | 80 mg/L | – | 60 mg/L | 80 mg/L | – | – | – | – | – |
| KTMMASGGTFGTFMAIGMGIR [KU-5878-Q62A] | > 300 mg/L | > 300 mg/L | – | > 300 mg/L | > 300 mg/L | – | – | – | – | – |
| KTMMQSGGTFGTKMAIGMGIR [KU-5878-F70K] | > 300 mg/L | > 300 mg/L | – | > 300 mg/L | > 300 mg/L | – | – | – | – | – |
| KTMMQSGGTFGTFMAIGMGAR [KU-5878-I77A] | > 300 mg/L | > 300 mg/L | – | > 300 mg/L | > 300 mg/L | – | – | – | – | – |
| KTMMQSGGAFGTFMAIGMGIR [KU-5878-T66A] | > 300 mg/L | > 300 mg/L | – | > 300 mg/L | > 300 mg/L | – | – | – | – | – |
| K-MMQSGGTFGTFMAIGMGIR [Peptide 5878-d59T] | 150 mg/L | 150 mg/L | – | 150 mg/L | 150 mg/L | – | – | – | – | – |
| KT-MQSGGTFGTFM-IG-GIR [5878-d60M, d72A, d75M] | 300 mg/L | 300 mg/L | – | 280 mg/L | 300 mg/L | – | – | – | – | – |
